Test results reported in publication PMC10611828 (European Journal of Nuclear Medicine and Molecular Imaging, 2023).
Read-outs that look alike come from different tables or passages of the source.

Assays:
[1] = Stability in mouse serum at 37 °C (radio-HPLC); format: in vitro ADME
Experimental: (§1) The ^177Lu-labeled peptides were incubated in 300-μL phosphate buffered saline (PBS; Gibco, ThermoFisher, The Netherlands) at 37 °C, and their stability was verified after 1, 4, 24, 48, and 72 h by radio-HPLC (Supplementary Fig. 2). The stability in serum was determined by incubating the radiolabeled compounds into 300 μL of mouse serum (Invitrogen, USA) or human serum (Sigma Aldrich, USA) at 37 °C (Supplementary Fig. 3, 4). At each time point post-incubation, 35 μL of the mixture was added to an Eppendorf tube, and the proteins were precipitated by adding an equal volume of acetonitrile. The tubes were centrifuged at 16,000 rpm, 4 °C for 20 min, and the stability was monitored by radio-HPLC, expressed as the RCP at the different time points.

[2] = Stability in human serum at 37 °C (radio-HPLC); format: in vitro ADME
Experimental: as §1

[3] = In vivo biodistribution and clearance in PC-3 tumor-bearing mice; conditions: male, NMRI-Foxn1 nu/nu, mouse, iv, total radioactivity, i.v.; for tissue uptake at 1 h: 1 h p.i.; for tissue uptake at 4 h: 4 h p.i.; for tissue uptake at 24 h: 24 h p.i.; for tissue uptake at 48 h: 48 h p.i.; for tissue uptake at 72 h: 72 h p.i.
Experimental: All animal experiments were approved by the Animal Welfare Committee of the Erasmus MC, and all experiments were conducted in accordance to institutional guidelines.
At 1, 4, 24, 48, and 72 h post-injection (p.i.), animals were sedated using 2.5% isoflurane in oxygen, and blood was collected via the orbital vein, after which the animals were euthanized using cervical dislocation. Subsequently, the following organs were collected; the tail, tumor, spleen, liver, pancreas, small intestine, colon, coecum, kidneys, lung, and muscle. […] The collected tumor and organs were weighed, and the radioactivity was measured in the gamma counter. The biodistribution data are expressed as percentage injected dose per gram of tissue (% ID/g). Animal numbers per group are indicated in Supplementary Table 1 and 2.
Statistical analysis was performed using Graphpad Prism version 9.0.0. Outliers were identified using the ROUT method with a Q value of 1%. IC50 curves were determined using non-linear regression.

[4] = set-up: method as in PMID 35951084; conditions: cited from earlier work
[5] = 1 h, read-out: intact radiolabeled ligand (RCP)
[6] = 4 h, read-out: intact radiolabeled ligand (RCP)
[7] = 24 h, read-out: intact radiolabeled ligand (RCP)
[8] = 48 h, read-out: intact radiolabeled ligand (RCP)
[9] = 72 h, read-out: intact radiolabeled ligand (RCP)
[10] = PC-3 tumor, read-out: % uptake PC-3 tumor
[11] = blood, read-out: % uptake blood
[12] = gastrointestinal tract, read-out: % uptake gastrointestinal tract
[13] = kidney, read-out: % uptake kidney
[14] = liver, read-out: % uptake liver
[15] = muscle, read-out: % uptake muscle
[16] = pancreas, read-out: % uptake pancreas
[17] = prostate, read-out: % uptake prostate
[18] = spleen, read-out: % uptake spleen

**Q.** With CC(C)CC(CC(C)C)NC(=O)[C@H](Cc1cnc[nH]1)NC(=O)CNC(=O)[C@@H](NC(=O)[C@H](C)NC(=O)[C@H](Cc1c[nH]c2ccccc12)NC(=O)[C@H](CCC(N)=O)NC(=O)[C@@H](Cc1ccccc1)NC(=O)COCC(=O)Nc1ccc(CNC(=O)CN2CCN(CC(=O)O)CCN(CC(=O)O)CCN(CC(=O)O)CC2)cc1)C(C)C [[^177Lu]Lu-NeoB, metal not drawn] as the compound, how does the “intact radiolabeled ligand (RCP)” value ([1]; 0 h) read?
**A.** 97.1 ± 0.3%

**Q.** And the remaining at 1 h [1, 5]?
**A.** 94.3 ± 0.7%

**Q.** And the remaining at 4 h [1, 6]?
**A.** 84.1 ± 1.1%

**Q.** And the remaining at 24 h [1, 7]?
**A.** 27.9 ± 2.3%

**Q.** And the remaining at 48 h [1, 8]?
**A.** 14.2 ± 1%

**Q.** And the remaining at 72 h [1, 9]?
**A.** 4.4 ± 1.2%

**Q.** And the “intact radiolabeled ligand (RCP)” value ([2]; 0 h)?
**A.** 97.1 ± 0.3%

**Q.** And the remaining at 1 h [2, 5]?
**A.** 97.9 ± 0.2%

**Q.** And the remaining at 4 h [2, 6]?
**A.** 97.8 ± 0.3%

**Q.** And the remaining at 24 h [2, 7]?
**A.** 89.2 ± 0.5%

**Q.** And the remaining at 48 h [2, 8]?
**A.** 81 ± 0.7%

**Q.** What about the remaining at 72 h [2, 9] of the same compound?
**A.** 75.6 ± 1.7%

**Q.** And the tissue uptake at 1 h [3, 10]?
**A.** 9.38 ± 0.81 %ID/g

**Q.** And the tissue uptake at 4 h [3, 10]?
**A.** 9.98 ± 2.64 %ID/g

**Q.** What about the tissue uptake at 24 h [3, 10] of the same compound?
**A.** 8.05 %ID/g

**Q.** And the tissue uptake at 48 h [3, 10]?
**A.** 4.77 %ID/g

**Q.** What about the tissue uptake at 72 h [3, 10] of the same compound?
**A.** 2.88 %ID/g

**Q.** What about the tissue uptake at 1 h [3, 11] of the same compound?
**A.** 1.15 %ID/g

**Q.** And the tissue uptake at 4 h [3, 11]?
**A.** 0.11 %ID/g

**Q.** What about the tissue uptake at 24 h [3, 11] of the same compound?
**A.** 0.01 %ID/g

**Q.** And the tissue uptake at 48 h [3, 11]?
**A.** 0.01 %ID/g

**Q.** And the tissue uptake at 1 h [3, 12]?
**A.** 3.08 %ID/g

**Q.** And the tissue uptake at 4 h [3, 12]?
**A.** 1.91 %ID/g

**Q.** What about the tissue uptake at 24 h [3, 12] of the same compound?
**A.** 0.09 %ID/g

**Q.** What about the tissue uptake at 48 h [3, 12] of the same compound?
**A.** 0.26 %ID/g

**Q.** What about the tissue uptake at 72 h [3, 12] of the same compound?
**A.** 0.15 %ID/g

**Q.** What about the tissue uptake at 1 h [3, 13] of the same compound?
**A.** 2.68 %ID/g

**Q.** And the tissue uptake at 4 h [3, 13]?
**A.** 0.86 %ID/g

**Q.** And the tissue uptake at 24 h [3, 13]?
**A.** 0.1 %ID/g

**Q.** What about the tissue uptake at 48 h [3, 13] of the same compound?
**A.** 0.06 %ID/g

**Q.** And the tissue uptake at 72 h [3, 13]?
**A.** 0.04 %ID/g

**Q.** What about the tissue uptake at 1 h [3, 14] of the same compound?
**A.** 3.35 %ID/g

**Q.** What about the tissue uptake at 4 h [3, 14] of the same compound?
**A.** 0.54 %ID/g

**Q.** What about the tissue uptake at 24 h [3, 14] of the same compound?
**A.** 0.12 %ID/g

**Q.** What about the tissue uptake at 48 h [3, 14] of the same compound?
**A.** 0.08 %ID/g

**Q.** What about the tissue uptake at 72 h [3, 14] of the same compound?
**A.** 0.06 %ID/g

**Q.** And the tissue uptake at 1 h ([3]; lung, read-out: % uptake lungs)?
**A.** 0.69 %ID/g

**Q.** What about the tissue uptake at 4 h ([3]; lung, read-out: % uptake lungs) of the same compound?
**A.** 0.09 %ID/g

**Q.** What about the tissue uptake at 24 h ([3]; lung, read-out: % uptake lungs) of the same compound?
**A.** 0.02 %ID/g

**Q.** What about the tissue uptake at 48 h ([3]; lung, read-out: % uptake lungs) of the same compound?
**A.** 0.01 %ID/g

**Q.** And the tissue uptake at 72 h ([3]; lung, read-out: % uptake lungs)?
**A.** 0.01 %ID/g

**Q.** What about the tissue uptake at 1 h [3, 15] of the same compound?
**A.** 0.13 %ID/g

**Q.** What about the tissue uptake at 4 h [3, 15] of the same compound?
**A.** 0.05 %ID/g

**Q.** And the tissue uptake at 1 h [3, 16]?
**A.** 30.7 ± 4.29 %ID/g

**Q.** What about the tissue uptake at 4 h [3, 16] of the same compound?
**A.** 21.4 ± 3.05 %ID/g

**Q.** And the tissue uptake at 24 h [3, 16]?
**A.** 4.14 %ID/g

**Q.** And the tissue uptake at 48 h [3, 16]?
**A.** 0.83 %ID/g

**Q.** What about the tissue uptake at 72 h [3, 16] of the same compound?
**A.** 0.35 %ID/g

**Q.** And the tissue uptake at 1 h [3, 17]?
**A.** 0.7 %ID/g

**Q.** And the tissue uptake at 4 h [3, 17]?
**A.** 0.08 %ID/g

**Q.** What about the tissue uptake at 24 h [3, 17] of the same compound?
**A.** 0.02 %ID/g

**Q.** And the tissue uptake at 48 h [3, 17]?
**A.** 0.01 %ID/g

**Q.** And the tissue uptake at 72 h [3, 17]?
**A.** 0.01 %ID/g

**Q.** And the tissue uptake at 1 h [3, 18]?
**A.** 0.43 %ID/g

**Q.** What about the tissue uptake at 4 h [3, 18] of the same compound?
**A.** 0.15 %ID/g

**Q.** What about the tissue uptake at 24 h [3, 18] of the same compound?
**A.** 0.04 %ID/g

**Q.** And the tissue uptake at 48 h [3, 18]?
**A.** 0.02 %ID/g

**Q.** What about the tissue uptake at 72 h [3, 18] of the same compound?
**A.** 0.01 %ID/g

**Q.** What about the tolerability ([4]; after repeated radiotracer administration) of the same compound?
**A.** well tolerated

**Q.** And the “hematological effects after treatment” value [4]?
**A.** no lasting hematological effects
